Experimental data published in patent US10294202B2, “Pyrrolidinones as herbicides” (FMC Corporation, priority 2013, dated 2019).

How the values were obtained:
[1] = tested on: barnyardgrass; assay: Test A pre-/postemergence herbicide test; format: in vivo, Echinochloa crus-galli
Procedure, shortened: (§1)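 Both application timings used compounds in a non-phytotoxic solvent plus surfactant. Pre-emergence: soil sprayed directly after seeding into loam/sand. Post-emergence: foliage of 2–10 cm seedlings (1–2 leaves) sprayed. Injury rated ~10 days later, 0–100.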

[2] = tested on: crabgrass, large; assay: Test A pre-/postemergence herbicide test; format: in vivo, Digitaria sanguinalis
Procedure, shortened: as §1

[3] = tested on: giant foxtail; assay: Test A pre-/postemergence herbicide test; format: in vivo, Setaria faberii
Procedure, shortened: as §1

[4] = tested on: morningglory; assay: Test A pre-/postemergence herbicide test; format: in vivo, Ipomoea spp.
Procedure, shortened: as §1

[5] = tested on: pigweed; assay: Test A pre-/postemergence herbicide test; format: in vivo, Amaranthus retroflexus
Procedure, shortened: as §1

[6] = tested on: velvetleaf; assay: Test A pre-/postemergence herbicide test; format: in vivo, Abutilon theophrasti
Procedure, shortened: as §1

[7] = tested on: wheat; assay: Test A pre-/postemergence herbicide test; format: in vivo, Triticum aestivum
Procedure, shortened: as §1

[8] = tested on: corn; assay: Test A pre-/postemergence herbicide test; format: in vivo, Zea mays
Procedure, shortened: as §1

[9] = tested on: rice; assay: Test B flooded paddy test; format: in vivo, Oryza sativa; settings: 250 g ai/ha, Flood; scale of 0 to 100 where 0 is no effect and 100 is complete control
Procedure, shortened: (§2)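 Plants grown to 2-leaf stage; pots flooded 3 cm above soil and compound applied directly into paddy water, depth held throughout. Visual rating against untreated controls after 13 to 15 days in greenhouse, 0 (no effect) to 100 (complete control).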

[10] = tested on: sedge, umbrella; assay: Test B flooded paddy test; format: in vivo, Cyperus difformis; settings: 250 g ai/ha, Flood; scale of 0 to 100 where 0 is no effect and 100 is complete control
Procedure, shortened: as §2

[11] = tested on: ducksalad; assay: Test B flooded paddy test; format: in vivo, Heteranthera limosa; settings: 250 g ai/ha, Flood; scale of 0 to 100 where 0 is no effect and 100 is complete control
Procedure, shortened: as §2

[12] = tested on: barnyardgrass; assay: Test B flooded paddy test; format: in vivo, Echinochloa crus-galli; settings: 250 g ai/ha, Flood; scale of 0 to 100 where 0 is no effect and 100 is complete control
Procedure, shortened: as §2

[13] = Postemergence, 125 g ai/ha, 0 to 100 scale, 0 no effect, 100 complete control
[14] = Postemergence, 500 g ai/ha, 0 to 100 scale (0 no effect, 100 complete control)
[15] = Preemergence, 125 g ai/ha, visual rating on 0 to 100 scale (0 no effect, 100 complete control)
[16] = preemergence, 500 g ai/ha, 0 to 100 scale
[17] = Postemergence, 1000 g ai/ha, 0 to 100 scale (0 no effect, 100 complete control)
[18] = preemergence, 1000 g ai/ha, 0 to 100 scale

With `NC1=NCC(c2ccc(F)c(F)c2)C1C(=O)Nc1ccccc1F` (centres unmarked) [Compound 95, 2-amino-4-(3,4-difluorophenyl)-N-(2-fluorophenyl)dihydro-3H-pyrrole-3-carboxamide] the “Plant response rating, Barnyardgrass” value [1, 13] was 80, the “Plant response rating, Barnyardgrass” value [1, 14] was 90 and the “Barnyardgrass plant response rating” value [1, 15] was 60. The “Plant response rating, Barnyardgrass” value ([1]; preemergence, 500 g ai/ha, 0 to 100 scale (0 no effect, 100 complete control)) was 90, the “Plant response rating, Crabgrass, Large” value [2, 13] was 80 and the “Plant response rating, Crabgrass, Large” value [2, 14] was 90. For the same compound, the “Crabgrass, Large plant response rating” value [2, 15] was 90, the “Plant response rating, Crabgrass, Large” value [2, 16] was 90 and the “Plant response rating, Foxtail, Giant” value [3, 13] was 70. The “Plant response rating, Foxtail, Giant” value [3, 14] was 80, the “Foxtail, Giant plant response rating” value [3, 15] was 80 and the “Plant response rating, Foxtail, Giant” value [3, 16] was 90. For the same compound, the “Plant response rating, Morningglory” value [4, 13] was 0, the “Plant response rating, Morningglory” value [4, 14] was 0 and the “Morningglory plant response rating” value [4, 15] was 0. The “Plant response rating, Morningglory” value [4, 16] was 0, the “Plant response rating, Pigweed” value [5, 13] was 0 and the “Plant response rating, Pigweed” value [5, 14] was 0. The “Pigweed plant response rating” value [5, 15] was 0, the “Plant response rating, Pigweed” value [5, 16] was 0 and the “Plant response rating, Velvetleaf” value [6, 13] was 0. The “Plant response rating, Velvetleaf” value [6, 14] was 0, the “Velvetleaf plant response rating” value [6, 15] was 0 and the “Plant response rating, Velvetleaf” value [6, 16] was 0. The “Plant response rating, Wheat” value [7, 13] was 0, the “Plant response rating, Wheat” value [7, 14] was 0 and the “Wheat plant response rating” value [7, 15] was 0. For the same compound, the “Plant response rating, Wheat” value [7, 16] was 0, the “Plant response rating, Corn” value [8, 13] was 0 and the “Plant response rating, Corn” value [8, 14] was 0. The “Corn plant response rating” value [8, 15] was 0, the “Plant response rating, Corn” value [8, 16] was 0 and the “Plant response rating, Rice” value [9] was 0. The “Plant response rating, Sedge, Umbrella” value [10] was 0, the “Plant response rating, Ducksalad” value [11] was 90 and the “Plant response rating, Barnyardgrass” value [12] was 0.

`CON(C(=O)C1C(=O)NCC1c1ccc(F)c(F)c1)c1ccccc1[N+](=O)[O-]` (centres unmarked) [Compound 243] was tested, and the “Plant response rating, Barnyardgrass” value [1, 17] was 60, the “Plant response rating, Barnyardgrass” value ([1]; preemergence, 1000 g ai/ha, 0 to 100 scale (0 no effect, 100 complete control)) was 80 and the “Plant response rating, Crabgrass, Large” value [2, 17] was 0. The “Plant response rating, Crabgrass, Large” value [2, 18] was 90, the “Plant response rating, Foxtail, Giant” value [3, 17] was 20 and the “Plant response rating, Foxtail, Giant” value [3, 18] was 90. For the same compound, the “Plant response rating, Morningglory” value [4, 17] was 0, the “Plant response rating, Morningglory” value [4, 18] was 0 and the “Plant response rating, Pigweed” value [5, 17] was 0. For the same compound, the “Plant response rating, Pigweed” value [5, 18] was 0, the “Plant response rating, Velvetleaf” value [6, 17] was 0 and the “Plant response rating, Velvetleaf” value [6, 18] was 0. The “Plant response rating, Wheat” value [7, 17] was 0, the “Plant response rating, Wheat” value [7, 18] was 0 and the “Plant response rating, Corn” value [8, 17] was 0. For the same compound, the “Plant response rating, Corn” value [8, 18] was 0, the “Plant response rating, Rice” value [9] was 0 and the “Plant response rating, Sedge, Umbrella” value [10] was 0. The “Plant response rating, Ducksalad” value [11] was 0 and the “Plant response rating, Barnyardgrass” value [12] was 0.
